Where two headings read alike, the source gives them in different places.
Assays:
Format in all cases: cell-based
human GLP-2R = target: T1, human GLP-2R (Homo sapiens, UniProt O95838); assay: HitHunter cAMP assay in transiently transfected COS-7 cells, human GLP-2R;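 note: cells kept 30 min at 37 °C in buffer with 1 mM IBMX, then given ligand for another 30 min at 37 °C before cAMP readout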
T1 construct: host or cells: COS-7
T1 sequence (O95838 1-553): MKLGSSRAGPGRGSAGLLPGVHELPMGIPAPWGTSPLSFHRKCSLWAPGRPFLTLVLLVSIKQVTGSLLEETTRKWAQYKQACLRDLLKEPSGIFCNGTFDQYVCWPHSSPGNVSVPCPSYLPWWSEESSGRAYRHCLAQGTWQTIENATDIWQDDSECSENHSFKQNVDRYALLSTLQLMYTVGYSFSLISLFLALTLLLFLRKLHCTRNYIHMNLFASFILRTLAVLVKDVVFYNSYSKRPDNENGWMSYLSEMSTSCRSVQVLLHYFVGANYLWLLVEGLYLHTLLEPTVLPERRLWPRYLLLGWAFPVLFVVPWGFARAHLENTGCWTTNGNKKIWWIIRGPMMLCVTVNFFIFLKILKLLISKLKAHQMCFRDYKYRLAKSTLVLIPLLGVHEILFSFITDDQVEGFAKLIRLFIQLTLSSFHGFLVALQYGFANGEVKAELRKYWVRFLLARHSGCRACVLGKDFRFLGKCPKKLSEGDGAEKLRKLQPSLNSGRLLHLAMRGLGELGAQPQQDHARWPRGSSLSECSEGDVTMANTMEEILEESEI
Method: COS-7 cells were cultured at 10% CO2 and 37° C. in Dulbecco's Modified Eagle Medium (DMEM) 1885 supplemented with 10% fetal bovine serum (FBS), 2 mM glutamine, 180 units/ml penicillin, and 45 g/ml streptomycin.
The next day the assay was initiated by washing with HEPES buffered saline (HBS) and followed by an incubation step with assay buffer (HBS added 1 mM isobutyl-1-methylxanthine (IBMX)) for 30 min at 37° C. The ligands were then added and incubated for an additional 30 min at 37° C. After ligand incubation, the HitHunter® CAMP assay (Eurofins DiscoverX, Fremont, 150 USA) was carried out according to the manufacturer's instructions. Luminescence was measured by PerkinElmer™ EnVision 2014 Multilabel Reader (PerkinElmer, Waltham, MA). The potencies (EC50 values) were determined by nonlinear regression using GraphPad Prism 9 (San Diego, California, USA). Sigmoid curves were fitted logistically. The efficacies (Emax values) were determined by normalization to the highest concentration applied of the endogenous ligand for each receptor.

human GLP-1R = target: T2, human GLP-1R (Homo sapiens, UniProt P43220); assay: HitHunter cAMP assay in transiently transfected COS-7 cells, human GLP-1R; conditions: for activation of hGLP-1R: fatty acid at C-terminal residue or position 16
T2 construct: host or cells: COS-7
T2 sequence (P43220 24-463): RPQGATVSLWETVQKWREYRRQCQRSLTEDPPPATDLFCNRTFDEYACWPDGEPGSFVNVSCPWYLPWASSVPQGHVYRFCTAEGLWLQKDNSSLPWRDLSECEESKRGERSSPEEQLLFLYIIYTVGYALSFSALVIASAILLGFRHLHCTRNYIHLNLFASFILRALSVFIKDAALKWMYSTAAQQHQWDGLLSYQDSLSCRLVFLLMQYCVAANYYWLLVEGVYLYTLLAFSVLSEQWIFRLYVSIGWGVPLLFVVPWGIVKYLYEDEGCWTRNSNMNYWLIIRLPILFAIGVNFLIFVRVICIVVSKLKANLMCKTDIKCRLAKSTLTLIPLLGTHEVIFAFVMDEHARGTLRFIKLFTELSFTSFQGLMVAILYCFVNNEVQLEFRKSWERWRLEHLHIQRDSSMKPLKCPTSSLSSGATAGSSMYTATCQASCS
Method: The next day the assay was initiated by washing with HEPES buffered saline (HBS) and followed by an incubation step with assay buffer (HBS added 1 mM isobutyl-1-methylxanthine (IBMX)) for 30 min at 37° C. The ligands were then added and incubated for an additional 30 min at 37° C. After ligand incubation, the HitHunter® CAMP assay (Eurofins DiscoverX, Fremont, […] USA) was carried out according to the manufacturer's instructions. Luminescence was measured by PerkinElmer™ EnVision 2014 Multilabel Reader (PerkinElmer, Waltham, MA). The potencies (EC50 values) were determined by nonlinear regression using GraphPad Prism 9 (San Diego, California, USA). Sigmoid curves were fitted logistically. The efficacies (Emax values) were determined by normalization to the highest concentration applied of the endogenous ligand for each receptor.

human GIPR = target: T3, human GIPR (Homo sapiens, UniProt P48546); design: host or cells: COS-7
T3 sequence (P48546 22-466): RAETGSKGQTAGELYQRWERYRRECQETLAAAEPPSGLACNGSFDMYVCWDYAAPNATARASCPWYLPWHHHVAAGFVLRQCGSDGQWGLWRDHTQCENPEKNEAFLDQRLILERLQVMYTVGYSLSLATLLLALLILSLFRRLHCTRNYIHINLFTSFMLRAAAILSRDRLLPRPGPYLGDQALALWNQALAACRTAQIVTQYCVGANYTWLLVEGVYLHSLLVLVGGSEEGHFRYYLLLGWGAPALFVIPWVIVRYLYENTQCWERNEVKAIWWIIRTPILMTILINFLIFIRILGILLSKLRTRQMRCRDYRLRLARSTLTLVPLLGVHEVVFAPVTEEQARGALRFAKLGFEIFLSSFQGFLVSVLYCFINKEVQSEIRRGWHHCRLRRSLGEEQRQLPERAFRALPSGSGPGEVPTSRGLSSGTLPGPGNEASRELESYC

[1] = Emax normalized to highest concentration of endogenous ligand, Table 2
[2] = Emax normalized to highest concentration of endogenous ligand, Table 3
[3] = comparative peptides, Emax normalized to endogenous ligand, Table B
[4] = comparative peptides, Emax normalized to endogenous ligand, Table C
[5] = comparative peptides, Emax normalized to endogenous ligand, Table 4A

| Substance | Efficacy GLP-2R (human GLP-2R; [1]) | Efficacy GLP-1R (human GLP-1R; [2]) | Efficacy GIPR (human GIPR; [1]) | other results |
| --- | --- | --- | --- | --- |
| (C10-diacid)H-Aib-DGTFISDYST-Aib-LDNLAARDFINWLIQTKITK-OH [Compound no. 18] | 90 | 10 | 77 |  |
| (C16)H-Aib-DGTFISDYST-Aib-LDNLAARDFINWLIQTKITK-OH [Compound no. 5] | 109 | 6 | 111 |  |
| (C16)H-Aib-DGTFISDYSTILD-Aib-LAARDFINWLIQTKITK-OH [Compound no. 6] | 91 | 34 | 108 |  |
| (C16)H-Aib-DGTFISDYSTILDNLAARDFIEWLIQTKIT-OH [Compound no. 8] | 106 | 19 | 108 |  |
| (C16)H-Aib-DGTFISDYSTILDNLAARDFIEWLIQTKITK-OH [Compound no. 7] | 101 | 13 | 114 |  |
| (C16)HADGTFISDYSTILDAibLAARDFINWLIQTKITKNDWKHNITQ [Compound no. 16] | 64 | 2 | 99 |  |
| (C16)HADGTFISDYSTILDELAARDFINWLIQTKITKNDWKHNITQ [Compound no. 48] | 69 |  | 112 |  |
| (C16)HADGTFISDYSTILDNLAAKDFINWLIQTKITK [Compound no. 45] | 59 |  | 91 |  |
| (C16)HADGTFISDYSTILDNLAARDFIEWLIQTKITKNDWKHNITQ [Compound no. 50] | 70 |  | 101 |  |
| (C16)HADGTFISDYSTILDNLAARDFINWLIATKITKNDWKHNITQ [Compound no. 52] | 68 |  |  |  |
| (C16)HADGTFISDYSTILDNLAARDFINWLIETKITKNDWKHNITQ [Compound no. 51] | 66 |  | 104 |  |
| (C16)HADGTFISDYSTILDNLAARDFINWLIQTKIT [Compound no. 2] | 59 |  | 80 |  |
| (C16)HADGTFISDYSTILDNLAARDFINWLIQTKITKAEWKHAITQ [Compound no. 49] | 92 |  | 105 |  |
| (C16)HADGTFISDYSTILDNLAARDFINWLLAQKITK [Compound no. 46] | 82 |  | 98 |  |
| (C16)HADGTFISDYSTILELLAARDFINWLIQTKITKNDWKHNITQ [Compound no. 15] | 70 | 0 | 106 |  |
| (C16-diacid)H-Aib-DGTFISDYST-Aib-LDALAARDFIEWLIQTKITK-OH [Compound no. 20] | 88 |  | 93 |  |
| (C16-diacid)H-Aib-DGTFISDYST-Aib-LDKLAARDFIEWLIQTKITK-OH [Compound no. 22] | 95 |  | 91 |  |
| (C16-diacid)H-Aib-DGTFISDYST-Aib-LDKLAARDFINWLIETKITK-OH [Compound no. 23] | 86 |  | 107 |  |
| (C16-diacid)H-Aib-DGTFISDYST-Aib-LDNLAAKDFINWLIQTKITKNDWKHNITQ-OH [Compound no. 42] | 93 |  |  |  |
| (C16-diacid)H-Aib-DGTFISDYST-Aib-LDNLAARDFINWLIQTKITK-OH [Compound no. 17] | 90 | 5 | 98 |  |
| (C16-diacid)H-Aib-DGTFISDYST-Aib-LDNLAARDFINWLIQTKITKNDWKHNITQ-OH [Compound no. 40] | 96 |  | 94 |  |

| Substance | Efficacy GLP-2R (human GLP-2R; [1]) | Efficacy GLP-1R (human GLP-1R; [2]) | Efficacy GIPR (human GIPR; [1]) | other results |
| --- | --- | --- | --- | --- |
| (C16-diacid)H-Aib-EGTFISDYST-Aib-LDALAARDFINWLIQTKITKNDWKHNITQ-OH [Compound no. 41] | 74 | 14 | 91 |  |
| (C16-diacid)H-Aib-EGTFISDYST-Aib-LDKLAARDFINWLIQTKITK-OH [Compound no. 21] | 58 | 10 | 86 |  |
| (C16-diacid)H-Aib-EGTFISDYST-Aib-LDNLAAKDFINWLIQTKITKNDWKHNITQ-OH [Compound no. 43] | 73 |  | 101 |  |
| (C16-diacid)H-Aib-EGTFISDYST-Aib-LDNLAARDFINWLIQTKITK-OH [Compound no. 19] | 81 |  | 98 |  |
| (C16-diacid)HADGTFISDYSTAibLDNLAARDFINWLIQTKITKNDWKHNITQ [Compound no. 39] | 78 |  | 99 |  |
| Ac-H-Aib-DGTFISDY-K(γGlu-C16)-T-Aib-LDNLAARDFINWLIQTKITK-OH [Compound no. 34] | 103 |  | 75 |  |
| Ac-H-Aib-DGTFISDY-K(γGlu-C16)-T-Aib-LDNLAARDFINWLIQTKITKNDWKHNITQ-OH [Compound no. 38] | 89 |  | 81 |  |
| H-Aib-DG-K(γGlu- γGlu-C10)-FISDYSTILDNLAARDFINWLIQTKITK-OH [Compound no. 26] | 91 | 14 | 80 |  |
| H-Aib-DG-K(γGlu- γGlu-C16)-FISDYST-Aib-LDNLAARDFINWLIQTKITK-OH [Compound no. 28] | 99 | 14 | 105 |  |
| H-Aib-DGTF-K(γGlu-C16)-SDYSTILDNLAARDFINWLIQTKITK-OH [Compound no. 10] | 23 | 10 | 102 |  |
| H-Aib-DGTFISDY-K(γGlu-C10)-T-Aib-LDNLAARDFINWLIQTKITD-OH [Compound no. 30] | 81 | 10 | 85 |  |
| H-Aib-DGTFISDY-K(γGlu-C16)-T-Aib-LDNLAARDFINWLIQTKITK-OH [Compound no. 29] | 124 | 0 | 104 |  |
| H-Aib-DGTFISDY-K(γGlu-C16)-TILDNLAARDFINWLIETKITK-OH [Compound no. 32] | 84 |  | 89 |  |
| H-Aib-DGTFISDYS-K(γGlu-C16)-ILDNLAARDFINWLIQTKITK-OH [Compound no. 12] | 79 | 62 | 107 |  |
| H-Aib-DGTFISDYST-Aib-LDNLAARDFINWLIQTKITK(C10)-NH2 [Compound no. 65, reference compound] |  |  |  | Efficacy GLP-2R (human GLP-2R; [3]): 77; Efficacy GLP-1R (human GLP-1R; [4]): 76; activation of hGLP-1R (human GLP-1R): capable of activating hGLP-1R; Efficacy GIPR (human GIPR; [5]): 107 |
| H-Aib-DGTFISDYSTILDNLAARDFINWLIQTKITK(C10)-OH [Compound no. 63, reference compound] |  |  |  | Efficacy GLP-2R (human GLP-2R; [3]): 105; Efficacy GLP-1R (human GLP-1R; [4]): 84; activation of hGLP-1R (human GLP-1R): capable of activating hGLP-1R; Efficacy GIPR (human GIPR; [5]): 99 |
| HADGTFISDYSTAibLDK(γGlu-C18-diacid) LAARDFINWLIQTKGKK [Compound no. 62, reference compound] |  |  |  | activation of hGLP-1R (human GLP-1R): capable of activating hGLP-1R |
| HADGTFISDYSTAibLDNLAARDFINWLIQTKGKKK(γGlu-C18-diacid) [Compound no. 61, reference compound] |  |  |  | activation of hGLP-1R (human GLP-1R): capable of activating hGLP-1R |
| HADGTFISDYSTILDK(γGlu-C18-diacid) LAARDFINWLIQTKGKK [Compound no. 64, reference compound] |  |  |  | activation of hGLP-1R (human GLP-1R): capable of activating hGLP-1R |
| HADGTFISDYSTILDNLAARDFINWLIQTKGKK(γGlu-C18-diacid) [Compound no. 60, reference compound] |  |  |  | activation of hGLP-1R (human GLP-1R): capable of activating hGLP-1R |

Source: patent US20250304643A1, “PEPTIDE DUAL AGONISTS OF GIPR AND GLP2R” (BAINAN BIOTECH APS, priority 2021, published 2025)
